From patent publication US20140127235A1, “TARGETING HK alpha FOR CONTROLLING BLOOD PRESSURE AND REGULATING ELECTROLYTE BALANCE” (UNIVERSITY OF FLORIDA RESEARCH FOUNDATION, INC., priority 2011, published 2014) come the findings set out here.

The nature of experiment [1]: Time course of the physiological effect of DOCP treatment in wild type mice (body weight, blood electrolytes). The format is in vivo, mouse. Particulars: for Change in BW (%) / Blood [Cl−] / Blood [HCO3−] / Blood [K+] / Blood [Na+]: wild type mice; for Change in BW (%): DOCP 1.7 mg i.m. How it is done: A primary goal of the study was to characterize the temporal changes in body weight, Na^+, K^+, and acid-base homeostasis during chronic mineralocorticoid excess. Body weight and blood electrolytes were measured over an eight day time course in untreated (control) mice and those treated with DOCP (1.7 mg) (Table 1).
Mice were fed normal lab chow, given free access to water, and given an i.m. injection of 1.7 mg DOCP (Percorten V, Novartis Pharmaceuticals). For perfusion and expression studies, mice were sacrificed with Na^+ pentobarbital (i.p. 120 mg/kg) followed by cervical dislocation. For time course experiments, another group of animals were anesthetized with 3-4% isoflurane and aortic blood was collected into a heparinized syringe for immediate analysis of electrolytes and blood gases (Nova pHOx Plus analyzer, Nova Biomedical). For high K^+ diet studies, mice were given a normal, powdered diet (TD99131, Teklad) supplemented with KCl to equal 5% K^+ which was then made as a gel. Half of the mice were treated with DOCP. Blood and tissues were collected as in the time course experiments. For urinalysis experiments, mice were housed in metabolic cages for thirteen days and fed a normal gel diet with free access to a water bottle. On day five, mice were treated with DOCP as above. Urine and feces were collected daily. Urine electrolytes were measured on a clinical analyzer (Nova 16 analyzer, Nova Biomedical) and fecal electrolytes were measured on a digital flame photometer (Model 2655-00, Cole-Parmer).

The test system of another experiment is HKα1 mRNA. Nature of the experiment: Real time PCR of renal HKα1 mRNA expression in DOCP-treated mice. The format is in vivo, mouse. Particulars: cortex, outer medulla and inner medulla, eight days after DOCP, normal diet. The text has this:
The principal mechanism of mineralocorticoid action is through modulation of target gene transcription.^15 Therefore, the next experiments evaluated the effect of DOCP on renal HKα1 and HKα2 mRNA expression. Real time quantitative PCR was used to investigate changes in steady state mRNA levels of H^+,K^+-ATPase α subunits, HKα1 and HKα2, in cortex, outer medulla, and inner medulla of control and DOCP-treated mice.
RNA was recovered from cortex, medulla, and inner medulla with TRIzol reagent (Invitrogen). RNA was treated with DNase 1 (Ambion DNA Free) and converted to cDNA using SuperScript III (Invitrogen). For real time quantitative PCR, 20 ng cDNA was used to quantify mRNA expression with TaqMan Gene Expression (Applied Biosystems) primer/probe sets for HKα1 (Atp4a, Mm00444423_m1), HKα2 (Atp12a, Mm0131809_m1), and β-actin (Actb, Mm00607939_s1). Cycle threshold (Ct) values were normalized to β-actin, and relative expression (control set to 100%) was calculated by the ΔΔCt method.^28
In general terms: In qPCR the cycle at which signal appears reflects the starting amount.

`CC(C)(C)C(=O)OCC(=O)[C@H]1CC[C@H]2[C@@H]3CCC4=CC(=O)CC[C@]4(C)[C@H]3CC[C@]12C` [DOCP, desoxycorticosterone pivalate]: the “Change in BW (%)” value in experiment [1] (Day 2) is recorded as 0.06 ± 1.2 (7) %; in experiment [1] (Day 4), 2.0 ± 1.2 (7) %; in experiment [1] (Day 6), 5.4 ± 1.4 (7)**^,† %; in experiment [1] (Day 8) it was 6.1 ± 1.2 (7)**^,† %. Moreover, the “Blood [Cl−]” value in experiment [1] (Day 2 of DOCP) is on record as 120 ± 1.8 (3) mM; in experiment [1] (Day 4 of DOCP), 116 ± 0.95 (4) mM; in experiment [1] (Day 6 of DOCP), 117 ± 0.35 (3) mM; in experiment [1] (Day 8 of DOCP), 111 ± 0.82 (3)*^,**^,†,‡ mM. Also, the “Blood [HCO3−]” value in experiment [1] (Day 2 of DOCP) was 19 ± 0.87 (4) mM; in experiment [1] (Day 4 of DOCP) it was 20 ± 1.2 (4) mM; in experiment [1] (Day 6 of DOCP), 20 ± 0.53 (3) mM; in experiment [1] (Day 8 of DOCP) it was 23 ± 2.0 (3) mM. Besides, the “Blood [K+]” value in experiment [1] (Day 2 of DOCP) is given as 3.5 ± 0.12 (4) mM; in experiment [1] (Day 4 of DOCP), 3.5 ± 0.17 (4) mM; in experiment [1] (Day 6 of DOCP), 2.9 ± 0.21 (3) mM; in experiment [1] (Day 8 of DOCP) it was 2.8 ± 0.07 (3)*^,† mM. The “Blood [Na+]” value is 150 ± 1.3 (3) mM in experiment [1] (Day 2 of DOCP), 153 ± 1.8 (4) mM in experiment [1] (Day 4 of DOCP), 153 ± 0.80 (3) mM in experiment [1] (Day 6 of DOCP) and 150 ± 0.41 (3) mM in experiment [1] (Day 8 of DOCP). Besides, in experiment [1] (wild-type mice, eight days of DOCP treatment), the “decrease in blood [Cl−]” value is recorded as “approximately 7 mM”. The “HKα1 mRNA expression compared to control” value in the experiment on HKα1 mRNA was “not significantly altered”.
